# Reference: US4279994A (priority 1979, dated 1981)
# Where a name gives a salt, the structure may show the parent alone. Read-outs that look alike come from different tables or passages of the source.
# Columns and labels:
# Type in all cases: biochemical
# pseudocholinesterase = biological target: T1, pseudocholinesterase (Homo sapiens, UniProt P06276); test: Eserine salicylate added to fresh human serum specimens, absorbance change between 10 and 30 minutes incubation (Example 4); settings: for Absorbance change: 10 to 30 minutes incubation
# T1 construct: hydrolysis of S-acyl substrate (BALB) with chromogenic sulfhydryl reagent
# T1 sequence (P06276 29-602): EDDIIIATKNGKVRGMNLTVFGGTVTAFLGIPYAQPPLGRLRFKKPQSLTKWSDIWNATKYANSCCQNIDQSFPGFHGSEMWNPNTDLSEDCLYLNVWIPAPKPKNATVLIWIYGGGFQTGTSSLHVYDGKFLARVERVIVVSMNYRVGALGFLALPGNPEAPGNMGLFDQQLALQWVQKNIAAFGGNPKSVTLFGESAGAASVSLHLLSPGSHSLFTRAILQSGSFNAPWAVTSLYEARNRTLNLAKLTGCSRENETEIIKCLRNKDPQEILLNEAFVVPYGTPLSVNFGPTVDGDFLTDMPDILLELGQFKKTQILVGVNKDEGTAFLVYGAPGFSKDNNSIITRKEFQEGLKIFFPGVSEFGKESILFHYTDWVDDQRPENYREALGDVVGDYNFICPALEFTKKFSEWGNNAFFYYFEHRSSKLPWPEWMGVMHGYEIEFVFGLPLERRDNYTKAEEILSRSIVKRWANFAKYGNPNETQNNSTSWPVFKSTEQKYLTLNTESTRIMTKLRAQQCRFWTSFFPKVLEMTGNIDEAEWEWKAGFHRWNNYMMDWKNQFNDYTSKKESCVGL
# acetyl cholinesterase = acetyl cholinesterase (Homo sapiens, UniProt P22303)
# Sequence of acetyl cholinesterase (P22303 32-614): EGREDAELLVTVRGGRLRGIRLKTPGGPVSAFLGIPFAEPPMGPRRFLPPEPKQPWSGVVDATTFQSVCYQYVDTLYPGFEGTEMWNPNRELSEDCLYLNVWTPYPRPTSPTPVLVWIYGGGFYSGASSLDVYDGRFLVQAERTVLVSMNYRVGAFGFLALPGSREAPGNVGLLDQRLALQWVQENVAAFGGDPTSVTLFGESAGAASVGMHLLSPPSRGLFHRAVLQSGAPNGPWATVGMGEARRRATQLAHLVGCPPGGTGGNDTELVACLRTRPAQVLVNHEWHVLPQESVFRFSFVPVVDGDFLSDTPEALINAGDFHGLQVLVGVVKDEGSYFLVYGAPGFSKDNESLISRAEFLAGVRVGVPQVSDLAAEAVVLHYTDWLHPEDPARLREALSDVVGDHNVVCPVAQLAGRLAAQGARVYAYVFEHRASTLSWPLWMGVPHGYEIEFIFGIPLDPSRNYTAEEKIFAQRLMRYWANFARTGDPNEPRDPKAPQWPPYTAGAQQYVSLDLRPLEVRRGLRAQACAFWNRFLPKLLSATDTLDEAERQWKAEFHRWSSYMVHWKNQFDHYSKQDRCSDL
# butyryl cholinesterase = butyryl cholinesterase (Homo sapiens, UniProt P06276)
# Sequence of butyryl cholinesterase (P06276 29-602): as the sequence (P06276 29-602) above
# [1] = biological target: T2, human serum containing naturally occurring pseudocholinesterases (Homo sapiens, UniProt P06276)
# T2 construct: human serum containing naturally occurring pseudocholinesterases; from tissue; host or cells: human serum (Serum A, Serum B)
# T2 sequence (P06276 29-602): as above
# lipase = test: Effect on lipase under the test conditions
# [2] = Reagent without lipase and without eserine salt, used to assay cholinesterase solutions (Example 4); settings: 1.17 units of acetyl cholinesterase or 0.36 units of butyryl cholinesterase; no lipase and no eserine salt
# Description: The four-reagent kit of Example 1 is utilized as follows, using duplicate specimen vials labelled "Patient-Blank", "Patient", "Blank 10 Minutes" and "Blank 30 Minutes", and the following procedure.
# The activity of serum lipase is proportional to the absorbance at 412 nanometers, and is calculated as follows:
# Lipase activity per 20 minutes= Absorbance [patient vial-Blank vial] (30 minutes) -Absorbance [patient vial-Blank vial] (10 minutes)
# A reagent composition is formulated to contain the following: […]
# Final pH about 8.8. Using a procedure similar to that of Example 2, the reagent was used to assay solutions containing 1.17 units of acetyl cholinesterase (a true cholinesterase) or 0.36 units of butyryl cholinesterase (a pseudocholinesterase). Acetyl cholinesterase produced an absorbance change of 0.011 absorbance units and butyryl cholinesterase produced a change of 0.421 absorbance units.
compound,measurement,setting,value
"CNC(=O)Oc1ccc2c(c1)[C@]1(C)CCN(C)[C@@H]1N2C [Eserine Salicylate, Eserine salicylate]",specificity for serum pseudocholinesterase,pseudocholinesterase,highly specific for serum pseudocholinesterase
same,improvement with increasing inhibitor concentration,pseudocholinesterase; concentrations increasing from 0.02 to 0.05 millimolar,little or no improvement
same,inhibition of pseudocholinesterase (in words),"pseudocholinesterase; fresh human serum, Example 4",inhibition of pseudocholinesterase
same,Absorbance change,"pseudocholinesterase; fresh human serum, 5 microliters (0.005 millimolar) of 1 millimolar eserine salicylate added",0.501
same,Absorbance change,"pseudocholinesterase; fresh human serum, 10 microliters of 1 millimolar eserine salicylate added",0.495
same,Absorbance change,"pseudocholinesterase; fresh human serum, 20 microliters of 1 millimolar eserine salicylate added",0.475
same,Absorbance change,"pseudocholinesterase; fresh human serum, 30 microliters of 1 millimolar eserine salicylate added",0.490
same,Absorbance change,"pseudocholinesterase; fresh human serum, 40 microliters of 1 millimolar eserine salicylate added",0.496
same,Absorbance change,"pseudocholinesterase; fresh human serum, 50 microliters of 1 millimolar eserine salicylate added",0.492
same,"Activity, Acetyl Cholinesterase",acetyl cholinesterase,0.027 ΔAbsorbance per 20 minutes incubation
same,"Activity, Butyryl Cholinesterase",butyryl cholinesterase,0.182 ΔAbsorbance per 20 minutes incubation
same,inhibition of BALB hydrolysis by pseudocholinesterase (in words),butyryl cholinesterase,significant inhibition
same,"Activity, Serum A",[1],0.078 ΔAbsorbance per 20 minutes incubation
same,"Activity, Serum B",[1],0.092 ΔAbsorbance per 20 minutes incubation
same,inhibition of lipase,lipase,does not inhibit lipase
"CN(C)C(=O)Oc1cccc([N+](C)(C)C)c1 [Neostigmine Methyl Sulfate, neostigmine methylsulfate]","Activity, Acetyl Cholinesterase",acetyl cholinesterase,0.025 ΔAbsorbance per 20 minutes incubation
same,"Activity, Butyryl Cholinesterase",butyryl cholinesterase,0.187 ΔAbsorbance per 20 minutes incubation
same,inhibition of BALB hydrolysis by pseudocholinesterase (in words),butyryl cholinesterase,significant inhibition
same,"Activity, Serum A",[1],0.098 ΔAbsorbance per 20 minutes incubation
same,"Activity, Serum B",[1],0.081 ΔAbsorbance per 20 minutes incubation
"O=S(=O)(F)Cc1ccccc1 [PMSF, phenyl methyl sulfonyl fluoride]","Activity, Acetyl Cholinesterase","acetyl cholinesterase; 50 microliters of acetyl cholinesterase, 10.4 units per ml, Neostigmine Methyl Sulfate 0.037 mM, PMSF 0.37 mM",0.021 ΔAbsorbance per 20 minutes incubation
same,"Activity, Butyryl Cholinesterase","butyryl cholinesterase; 50 microliters of butyryl cholinesterase, 7.2 units per ml, Eserine Salicylate 0.037 μm, Neostigmine Methyl Sulfate 0.037 mM, PMSF 0.37 mM",0.338 ΔAbsorbance per 20 minutes incubation
same,"Activity, Serum A","[1]; 50 microliters of human Serum A, Eserine Salicylate 0.037 μm, Neostigmine Methyl Sulfate 0.037 mM, PMSF 0.37 mM",0.487 ΔAbsorbance per 20 minutes incubation
same,"Activity, Serum B","[1]; 50 microliters of human Serum B, Eserine Salicylate 0.037 μm, Neostigmine Methyl Sulfate 0.037 mM, PMSF 0.37 mM",0.383 ΔAbsorbance per 20 minutes incubation
same,effect in inhibiting the interfering hydrolysis of the S-acyl compound (in words),"[1]; serum samples, without pseudocholinesterase inhibitor",little or no effect
Acetyl cholinesterase,Absorbance change,[2],0.011 absorbance units
